Experimental data as given in US20110245323A1, “RIG-Like Helicase Innate Immunity Inhibits VEGF-Induced Tissue Responses” (Yale University, priority 2006, published 2011).

Key:
human patients = details: cited from earlier work
[1] = system: CC10-rtTA-VEGF165 transgenic mice; test: VEGF-induced pulmonary hemorrhage in BAL fluids; format: in vivo, mouse; details: Tg+ mice, pretreatment, vs vehicle
Description: The CC10-rtTA-VEGF165 transgenic mice used in this study were generated and used as described previously (Lee et al., 2004, Nature Medicine 10:1095-103), which reference is incorporated herein in its entirety. These animals were housed under barrier conditions in the animal facility at Yale University School of Medicine. In these experiments 6-8 week old transgenic (Tg+) animals and their transgene negative littermate controls (Tg−) were randomized to receive water with doxycycline (dox) (0.5 mg/ml) or normal water. Two weeks later they were sacrificed and the VEGF-induced phenotype was evaluated as described below (Lee et al., 2004, Nature Medicine 10:1095-103). […]
Mice were sacrificed using intraperitoneal ketamine/xylazine injection and the trachea was cannulated and perfused with two 0.9 nil aliquots of cold saline. The cellular contents and BAL fluid were separated by centrifugation, the BAL cell number was quantitated and cell differential was assessed. […]
The lungs were removed en bloc as described elsewhere herein, inflated at 25 cm pressure with PBS containing 0.5% low melting point agarose gel, fixed in Streck solution (Streck Laboratories, La Vista, Nebr.), embedded in paraffin, sectioned and stained. […] Pulmonary hemorrhage was evaluated by quantitating BAL red blood cell number with a Coulter counter (Beckman Coulter).

[2] = system: CC10-rtTA-VEGF165 transgenic mice; test: VEGF-induced mucus metaplasia (PAS staining, BAL MUC5AC); format: in vivo, mouse; details: Tg+ mice, pretreatment, vs vehicle
Description: (§1) To define the effects of Poly(I:C) a number of protocols were employed. In most experiments, a pretreatment-2 week protocol was employed. In these experiments, WT and Tg+ mice were treated with Poly(I:C) (30 μg in 50 lambda unless otherwise indicated; Amersham Biosciences, N.J.) or vehicle control via nasal aspiration and transgene activation was accomplished via the administration of dox (0.5 mg/ml) in the animal's drinking water 24 hours later. The Poly(I:C) was administered every other day and the dox was administered continuously for up to 2 weeks.
(§2) Lastly, in selected experiments post-transgene activation protocols were employed. In these experiments dox was administered for 2 days or 2 weeks. The Poly(I:C) was then administered via intranasal aspiration every other day for 2 weeks as disclosed elsewhere herein. In selected pre-treatment and post-transgene activation experiments, unmethylated CpG (CpG-B) (Keck Center, Yale University) was also employed at similar doses. At the end of these intervals, assessments of angiogenesis (anti-CD31 immunohistochemistry), vascular permeability (Evan's blue dye extravasation, wet to dry lung weight measurements, BAL protein concentration), BAL and tissue inflammatory cell infiltration and mucus metaplasia (periodic acid-Schiff (PAS) staining, MUC5AC immunoblotting) were undertaken. In all cases experiments were designed to compare Tg− and Tg+ mice on normal water and Tg− and Tg+ mice on dox water.
The lungs were removed en bloc as described elsewhere herein, inflated at 25 cm pressure with PBS containing 0.5% low melting point agarose gel, fixed in Streck solution (Streck Laboratories, La Vista, Nebr.), embedded in paraffin, sectioned and stained. Hematoxylin and eosin and PAS stains were performed in the Research Histology Laboratory of the Department of Pathology at the Yale University School of Medicine. Pulmonary hemorrhage was evaluated by quantitating BAL red blood cell number with a Coulter counter (Beckman Coulter).
The levels of MUC5AC, the major airway mucin in BAL fluids, were assessed as previously described (Lee et al., 2008, Am J Respir Cell Mol Biol 39:739-746). In these evaluations, 0.1 ml of BAL fluid was slot blotted onto nitrocellulose membranes using a Minifold II slot blot apparatus (Schleicher & Schuell). After air-drying, the membrane was blocked with 5% skim milk, washed three times and incubated overnight at 4° C. with a monoclonal antibody against Mucin-5AC (45M1; NeoMarkers, Union City, Calif.). After washing, the membranes were incubated for 1 hour at room temperature with horseradish peroxidase-conjugated anti-mouse immunoglobulin (Ig)-G (Pierce). Immunoreactive mucins were detected using a chemiluminescent procedure (ECL Plus Western blotting detection system, Amersham Biosciences) according to instructions from the manufacturer.

[3] = system: CC10-rtTA-VEGF165 transgenic mice; test: BAL inflammatory cell recovery, VEGF-induced inflammation; format: in vivo, mouse; details: for Total cells (×10^4): VEGF-induced tissue responses, TLR agonist administration, PBS control 50
Description: (§3) The CC10-rtTA-VEGF165 transgenic mice used in this study were generated and used as described previously (Lee et al., 2004, Nature Medicine 10:1095-103), which reference is incorporated herein in its entirety. These animals were housed under barrier conditions in the animal facility at Yale University School of Medicine. In these experiments 6-8 week old transgenic (Tg+) animals and their transgene negative littermate controls (Tg−) were randomized to receive water with doxycycline (dox) (0.5 mg/ml) or normal water. Two weeks later they were sacrificed and the VEGF-induced phenotype was evaluated as described below (Lee et al., 2004, Nature Medicine 10:1095-103).
(§4) To define the effects of these agents on the tissue responses induced by VEGF, two experimental procedures were used. In the first, a pretreatment protocol was used. In these experiments the noted innate immunity agonist ([…] unless otherwise indicated) or its vehicle control (PBS) were administered intranasally and aspirated into the lungs of randomized Tg+ and Tg− mice starting one day before the Dox water treatment. The doses were administered to the mice every other day during the 2 week doxyxycline (dox) treatment interval.
(§5) To determine if the innate immunity agonists altered established VEGF-induced tissue responses, a “post treatment” protocol was used in selected experiments. In these experiments the innate immunity agonist was administered 2 days or 14 days after the doxycycline and VEGF-induced responses were evaluated 2 weeks later.
as §1, §2
Mice were sacrificed using intraperitoneal ketamine/xylazine injection and the trachea was cannulated and perfused with two 0.9 nil aliquots of cold saline. The cellular contents and BAL fluid were separated by centrifugation, the BAL cell number was quantitated and cell differential was assessed. The BAL fluid was stored in aliquots at −80° C.

[4] = system: CC10-rtTA-VEGF165 transgenic mice; test: VEGF-induced angiogenesis, anti-CD31 immunohistochemistry and vessel area density; format: in vivo, mouse; details: for Vascularity (%): VEGF-induced tissue responses, TLR agonist administration, PBS control 43
Description: as §3, §4, §5, §1
In selected experiments a pretreatment protocol and shorter treatment interval was employed. In these experiments, WT and Tg+ mice were treated with Poly(I:C) (30 μg/mouse/dose in 50 μl) or vehicle control via nasal aspiration and transgene activation was accomplished with dox 24 hours later. The animals were then randomized to not receive or receive one additional dose of Poly(I:C) 24 hours later and dox was administered continuously during this 2 week interval.
as §2

Molecule | toxicity, lower dose (human patients; 10 to 50 mcg/kg) | toxicity and efficacy in human patients, high doses (human patients; 200-300 mcg/kg IV) | VEGF-induced bleeding / hemorrhage in BAL fluids [1] | VEGF-induced mucus metaplasia (PAS stains, BAL MUC5AC accumulation) [2] | total recovery of inflammatory cells during BAL / VEGF-induced inflammation ([3]; Tg+ mice, pretreatment, vs vehicle) | Total cells (×10^4) [3] | VEGF-induced angiogenesis (vascular density, appearance, sprouting) ([4]; Tg+ mice, pretreatment starting 1 day before dox, vs vehicle) | Vascularity (%) [4]
poly-ICLC | little or no toxicity | toxic and largely ineffectual | – | – | – | – | – | –
CCNCc1nc2c(N)nc3ccccc3c2n1CC(C)(C)O [Gardiquimod] | – | – | decreased | decreased | decreased | 29 ×10^4 | decreased | 32.4%
Lipopolysaccharide [LPS] | – | – | – | – | – | 156 ×10^4 | – | 32.2%
